This experiment relates to MCPP-induced Hypolocomotion. The experiment is described as follows: Reversal of MCPP-induced Hypolocomotion. The class given is in vivo. Particulars: po, procedure of WO 94/04533, read-out: ID50 (the source's name). How it is done: Reversal of MCPP-induced Hypolocomotion
Compounds were tested following the procedure outlined in WO 94/04533. The compound of example 8 has an ID50 of 10.0 mg/kg p.o.

Results on one compound are retold here after patent publication US5972937A, “Heterocyclic compounds possessing 5HT2C receptor antagonist activity” (SmithKline Beecham p.l.c., priority 1995, dated 1999).

Consider `CSc1cc2c(cc1C(F)(F)F)N(C(=O)Nc1cccc(C(=O)NCCN(C)C)c1)CC2` [Example 8, 5-Methylthio-6-trifluoromethyl-1-[3-[(2-dimethylaminoethyl)carbamoyl]phenylcarbamoyl]indoline], for which the ED50 came out at 10 mg/kg.
